This note sets out measurements from patent US20230312605A1, “PYRROLO[2,1-F][1,2,4]TRIAZINES AND PREPARATION AND USES THEREOF” (BioSplice Therapeutics, Inc., priority 2021, published 2023).

By pEC50 is commonly meant the EC50 on a negative log10 scale, so that one unit is a factor of ten.

Each structure is given as a SMILES string. pEC50: −log10 of the molar value.

Test [1] concerns the target recombinant DYRK1A kinase (Homo sapiens (Human), UniProt Q13627). As to the kind of experiment: DYRK1A kinase assay (Ser/Thr 18 peptide Z-lyte FRET assay). The class given is biochemical. The note with it: recombinant DYRK1A 0.25 µg/mL, ATP 15 µM, Ser/Thr peptide 18 4 µM, one hour at room temperature; table head prints EC50, method says IC50. Summed up:
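Z-lyte FRET format: 1 h room-temperature reaction of 15 µM ATP, 4 µM Ser/Thr 18 peptide and 0.25 µg/mL recombinant human DYRK1A, in duplicate over 11 compound concentrations up to 10 µM. IC50 was derived by non-linear regression of percent phosphorylation calculated from coumarin/fluorescein emission ratios.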

In test [2] the test system is Tau phosphorylation at Thr212 (pThr212) in HEK293T cells transfected with DYRK1A and MAPT. The test is described as follows: phosphoTau (Thr212) AlphaLISA tau phosphorylation cell assay. It is filed as cell-based. The note with it: HEK-293T, HEK293T cells transiently transfected with human DYRK1A and MAPT, compound treatment 18-24 hours, read-out: pTau (Thr212) EC50. The method, then: Representative compounds were screened using the assay procedure for tau phosphorylation activity described below.
HEK293T cells (ATCC, CRL3216) cultured in DMEM (Thermo Fisher Scientific, 10566024) supplemented with 10% FBS (Corning, 35-011-CV) and Penicillin/Streptomycin (Thermo Fisher Scientific, 15140163) were seeded in a 75 cm^2 flask at 8.1 × 10^6 cells/flask. The HEK293T cells were then transiently transfected with 5 µg DYRK1A (NM_001396) human untagged clone (OriGene, SC314641) and 2.5 µg MAPT (441 a.a. Tau gene) (NM_005910) human untagged clone (OriGene, TP313312) using Lipofectamine 3000 (Thermo Fisher Scientific, L30000015) and incubated for 20-30 hours in a humidified incubator at 37° C. and 5% CO^2. Post-incubation, HEK293T cells transfected with the DYRK1A and MAPT expression vectors were harvested and seeded in BioCoat poly-D lysine coated 96-well plates (Corning, 354461) at 3 × 10^4 cells/well.
The above synthesized compounds were screened using the cell assay procedure to assess decreased Tau phosphorylation at Thr212 (pThr212) described below.
Each compound was dissolved in DMSO (Sigma-Aldrich, D8418-100 mL) as a 10 mM stock. 10 mM stocks were serially diluted 1:3, 10-point dose-response curve and added to the cells with a final concentration ranging from 20 µM to 1.1 nM. Cells were treated with compounds in duplicate and incubated for 18-24 hours in a humidified incubator at 37° C. and 5% CO^2.
Following the overnight compound treatment, cells were lysed with 1X Alpha Surefire Ultra Lysis Buffer (Perkin Elmer, ALSU-LB-100ML) complemented with 1X Halt Phosphatase Inhibitor Cocktail (Thermo Fisher Scientific, 78427) and 1X Halt Protease Inhibitor Cocktail (Thermo Fisher Scientific, 78438). Lysates were spun down at 12,000 g for 10 min to remove any cellular debris and 5 µL of lysates were dispensed into a 384-well Opti-Plate (Perkin Elmer, 6007290) for the measurement of Tau phosphorylation in the phosphoTau (Thr212) AlphaLISA assay. Donor antibody, biotinylated HT7Tau (Thermo Fisher Scientific, MN1000B), and acceptor antibody, pThr212Tau (Thermo Fisher Scientific, 44740G) were both added to the cell lysates at a final concentration of 3 nM and incubated for 1 hour at room temperature. Following incubation of the lysates with the donor and acceptor antibodies, anti-rabbit IgG(Fc specific) AlphaLISA acceptor beads (Perkin Elmer, AL104C) were added at a 10 ug/mL final concentration and incubated for 1 hour at room temperature protected from light. Lastly, AlphaScreen streptavidin donor beads (PerkinElmer, 6760002) were added at 40 ug/mL final concentration and incubated for 1 hour at room temperature protected from light. Plates were read at Ex= […], and Em=615 nm on the EnVision Multilabel Plate Reader (Perkin Elmer)
phospho-Tau (Thr212) AlphaLISA signal was used to plot, draw the curve fitting, and determine each compound’s EC50 in Prism (GraphPad).

As for `C[C@]1(O)CC[C@@H](Nc2ncc3c(-c4ccc5nccnc5c4)ccn3n2)CC1` [Compound 1394, (1s,4s)-1-Methyl-4-((5-(quinoxalin-6-yl)pyrrolo[2,1-f][1,2,4]triazin-2-yl)amino)cyclohexan-1-ol], the pEC50 in test [1] was 7.85; in test [2] it was 6.15.
